Measurements: US20260109690A1, “HDAC6 INHIBITORS AND METHOD OF THEIR USE” (Baerenkraft Therapeutics, LLC., priority 2024, published 2026)
Where a name gives a salt, the structure may show the parent alone.

biological target: T1, HDAC6 (Homo sapiens, UniProt Q9UBN7); assay: Biochemical HDAC6 inhibitory activity assay; settings: 10-dose IC50 mode, in singlet, 3-fold serial dilution starting at 1 μM; read-out: HDAC6 IC50
T1 sequence (Q9UBN7 1-1215): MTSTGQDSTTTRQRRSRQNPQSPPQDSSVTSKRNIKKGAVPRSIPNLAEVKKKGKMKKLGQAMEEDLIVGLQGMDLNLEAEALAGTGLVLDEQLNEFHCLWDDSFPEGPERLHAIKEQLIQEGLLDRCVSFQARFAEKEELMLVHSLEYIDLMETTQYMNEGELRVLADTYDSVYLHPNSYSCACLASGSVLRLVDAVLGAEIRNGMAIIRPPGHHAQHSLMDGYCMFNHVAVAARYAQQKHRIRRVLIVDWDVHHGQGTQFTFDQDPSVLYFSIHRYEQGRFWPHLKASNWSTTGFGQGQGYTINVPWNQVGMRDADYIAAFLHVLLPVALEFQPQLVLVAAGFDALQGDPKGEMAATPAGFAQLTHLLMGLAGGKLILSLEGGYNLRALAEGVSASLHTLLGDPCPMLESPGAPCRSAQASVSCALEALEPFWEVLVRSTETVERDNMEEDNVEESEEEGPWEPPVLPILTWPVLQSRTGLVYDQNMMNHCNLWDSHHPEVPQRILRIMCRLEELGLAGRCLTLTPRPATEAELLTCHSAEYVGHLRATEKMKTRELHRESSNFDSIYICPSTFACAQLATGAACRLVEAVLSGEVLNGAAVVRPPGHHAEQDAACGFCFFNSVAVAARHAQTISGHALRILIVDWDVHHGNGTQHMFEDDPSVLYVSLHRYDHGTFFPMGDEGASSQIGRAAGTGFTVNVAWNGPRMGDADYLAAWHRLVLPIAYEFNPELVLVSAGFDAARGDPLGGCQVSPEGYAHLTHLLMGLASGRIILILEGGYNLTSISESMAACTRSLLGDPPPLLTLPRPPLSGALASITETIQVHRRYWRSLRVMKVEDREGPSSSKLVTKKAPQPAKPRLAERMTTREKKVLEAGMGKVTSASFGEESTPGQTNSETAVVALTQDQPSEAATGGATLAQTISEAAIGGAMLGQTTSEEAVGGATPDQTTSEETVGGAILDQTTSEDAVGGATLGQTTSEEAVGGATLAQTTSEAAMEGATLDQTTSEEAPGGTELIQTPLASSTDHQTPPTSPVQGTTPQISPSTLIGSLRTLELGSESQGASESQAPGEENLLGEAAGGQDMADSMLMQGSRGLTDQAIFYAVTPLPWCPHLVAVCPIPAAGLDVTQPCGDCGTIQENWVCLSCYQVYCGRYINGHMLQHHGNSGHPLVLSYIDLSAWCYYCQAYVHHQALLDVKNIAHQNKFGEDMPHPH

Row | IC50 [nM] | Structure (SMILES)
1 | 16 | C[C@H]1CN(Cc2ccc(Nc3nccc(-c4ccc(C(=O)NO)cc4)n3)cc2F)CCO1 [Compound I-15, (S)-4-(2-((3-fluoro-4-((2-methylmorpholino)methyl)phenyl)amino)pyrimidin-4-yl)-N-hydroxybenzamide]

same assay, conditions: read-out: HDAC6 IC50

Row | Structure (SMILES) | IC50 [nM]
2 | N#CNC(=O)c1ccc(-c2ccnc(Nc3ccc(C(=O)N4CCOCC4)c(F)c3)n2)cc1 [Compound I-2, N-cyano-4-(2-((3-fluoro-4-(morpholine-4-carbonyl)phenyl)amino)pyrimidin-4-yl)benzamide] | > 100000
3 | O=C(NO)c1ccc(-c2nc(Nc3ccc(C(=O)N4CCOCC4)c(F)c3)ncc2Cl)cc1 [Compound I-17, 4-(5-chloro-2-((3-fluoro-4-(morpholine-4-carbonyl)phenyl)amino)pyrimidin-4-yl)-N-hydroxybenzamide] | < 1000
4 | CCNNC(=O)c1ccc(-c2nc(N3CCOCC3)ncc2Cl)cc1 [Compound I-22, 4-(5-chloro-2-morpholinopyrimidin-4-yl)-N′-ethylbenzohydrazide] | > 100000
5 | CCNNC(=O)c1ccc(-c2ccnc(N3CCC4(CC3)COC4)n2)cc1 [Compound I-23, 4-(2-(2-oxa-7-azaspiro[3.5]nonan-7-yl)pyrimidin-4-yl)-N′-ethylbenzohydrazide] | < 1000
6 | CCNNC(=O)c1ccc(-c2nc(N3CCC4(CC3)COC4)ncc2Cl)cc1 [Compound I-24, 4-(5-chloro-2-(2-oxa-7-azaspiro[3.5]nonan-7-yl)pyrimidin-4-yl)-N′-ethylbenzohydrazide] | > 100000
7 | C[C@H]1CN(Cc2ccc(Nc3nccc(-c4ccc(-c5nnc(C(F)F)o5)cc4)n3)cc2F)CCO1 [Compound I-30, (S)-4-(4-(5-(difluoromethyl)-1,3,4-oxadiazol-2-yl)phenyl)-N-(3-fluoro-4-((2-methylmorpholino)methyl)phenyl)pyrimidin-2-amine] | 1000 to 10000
8 | C[C@H]1CN(Cc2ccc(Nc3nccc(-c4ccc(-c5nnc(C(F)F)o5)cc4F)n3)cc2F)CCO1 [Compound I-31, (S)-4-(4-(5-(difluoromethyl)-1,3,4-oxadiazol-2-yl)-2-fluorophenyl)-N-(3-fluoro-4-((2-methylmorpholino)methyl)phenyl)pyrimidin-2-amine] | < 1000
9 | C[C@@H]1CN(Cc2ccc(Nc3nccc(-c4ccc(-c5nnc(C(F)F)o5)cc4)n3)cc2F)CCO1 [Compound I-32, (R)-4-(4-(5-(difluoromethyl)-1,3,4-oxadiazol-2-yl)phenyl)-N-(3-fluoro-4-((2-methylmorpholino)methyl)phenyl)pyrimidin-2-amine TFA salt] | 1000 to 10000
10 | C[C@@H]1CN(Cc2ccc(Nc3nccc(-c4ccc(-c5nnc(C(F)F)o5)cc4F)n3)cc2F)CCO1 [Compound I-33, (R)-4-(4-(5-(difluoromethyl)-1,3,4-oxadiazol-2-yl)-2-fluorophenyl)-N-(3-fluoro-4-((2-methylmorpholino)methyl)phenyl)pyrimidin-2-amine] | < 1000
11 | C[C@H]1CN(Cc2ccc(Nc3nccc(-c4ccc(-c5nnc(C(F)F)o5)cn4)n3)cc2F)CCO1 [Compound I-34, (S)-4-(5-(5-(difluoromethyl)-1,3,4-oxadiazol-2-yl)pyridin-2-yl)-N-(3-fluoro-4-((2-methylmorpholino)methyl)phenyl)pyrimidin-2-amine] | 1000 to 10000
12 | C[C@@H]1CN(Cc2ccc(Nc3nccc(-c4ccc(-c5nnc(C(F)F)o5)cn4)n3)cc2F)CCO1 [Compound I-35, (R)-4-(5-(5-(difluoromethyl)-1,3,4-oxadiazol-2-yl)pyridin-2-yl)-N-(3-fluoro-4-((2-methylmorpholino)methyl)phenyl)pyrimidin-2-amine] | 10000 to 35000
13 | C[C@H]1CN(Cc2ccc(-c3ccnc(Nc4ccc(-c5nnc(C(F)F)o5)cc4F)n3)c(F)c2)CCO1 [Compound I-36, (S)-N-(4-(5-(difluoromethyl)-1,3,4-oxadiazol-2-yl)-2-fluorophenyl)-4-(2-fluoro-4-((2-methylmorpholino)methyl)phenyl)pyrimidin-2-amine] | 1000 to 10000
14 | C[C@H]1CN(c2ccc(Nc3nccc(-c4ccc(-c5nnc(C(F)F)o5)cn4)n3)cc2F)CCO1 [Compound I-38, (S)-4-(5-(5-(difluoromethyl)-1,3,4-oxadiazol-2-yl)pyridin-2-yl)-N-(3-fluoro-4-(2-methylmorpholino)phenyl)pyrimidin-2-amine] | 1000 to 10000
15 | C[C@@H]1CN(c2ccc(Nc3nccc(-c4ccc(-c5nnc(C(F)F)o5)cn4)n3)cc2F)CCO1 [Compound I-39, (R)-4-(5-(5-(difluoromethyl)-1,3,4-oxadiazol-2-yl)pyridin-2-yl)-N-(3-fluoro-4-(2-methylmorpholino)phenyl)pyrimidin-2-amine] | 1000 to 10000
16 | Fc1cc(Nc2nccc(-c3ccc(-c4nnc(C(F)F)o4)cn3)n2)ccc1N1CCOCC1 [Compound I-40, 4-(5-(5-(difluoromethyl)-1,3,4-oxadiazol-2-yl)pyridin-2-yl)-N-(3-fluoro-4-morpholinophenyl)pyrimidin-2-amine] | 1000 to 10000

The remaining lines, values ahead:

Row | IC50 [nM] | Structure (SMILES)
17 | < 1000 | O=C(NO)c1ccc(-c2ccnc(Nc3ccc(C(=O)N4CCOCC4)c(F)c3)n2)cc1 [Compound I-1, 4-(2-((3-fluoro-4-(morpholine-4-carbonyl)phenyl)amino)pyrimidin-4-yl)-N-hydroxybenzamide]
18 | < 1000 | CC1CCN(C(=O)c2ccc(Nc3nccc(-c4ccc(C(=O)NO)cc4)n3)cc2F)CC1 [Compound I-3, 4-(2-((3-fluoro-4-(4-methylpiperidine-1-carbonyl)phenyl)amino)pyrimidin-4-yl)-N-hydroxybenzamide]
19 | < 1000 | CN1CCN(C(=O)c2ccc(Nc3nccc(-c4ccc(C(=O)NO)cc4)n3)cc2F)CC1 [Compound I-4, 4-(2-((3-fluoro-4-(4-methylpiperazine-1-carbonyl)phenyl)amino)pyrimidin-4-yl)-N-hydroxybenzamide]
20 | < 1000 | CC1CCN(Cc2ccc(Nc3nccc(-c4ccc(C(=O)NO)cc4)n3)cc2F)CC1 [Compound I-6, 4-(2-((3-fluoro-4-((4-methylpiperidin-1-yl)methyl)phenyl)amino)pyrimidin-4-yl)-N-hydroxybenzamide]
21 | < 1000 | CC(c1ccc(Nc2nccc(-c3ccc(C(=O)NO)cc3)n2)cc1F)N1CCN(C)CC1 (stereo not drawn) [Compound I-10, 4-(2-((3-fluoro-4-(1-(4-methylpiperazin-1-yl)ethyl)phenyl)amino)pyrimidin-4-yl)-N-hydroxybenzamide]
22 | < 1000 | CC1CN(c2ccc(Nc3nccc(-c4ccc(C(=O)NO)cc4)n3)cc2F)CCO1 (stereo not drawn) [Compound I-11, 4-(2-((3-fluoro-4-(2-methylmorpholino)phenyl)amino)pyrimidin-4-yl)-N-hydroxybenzamide]
23 | 1000 to 10000 | Cc1cc(-c2ccnc(Nc3ccc(N4CCOC(C)C4)c(F)c3)n2)ccc1C(=O)NO (stereo not drawn) [Compound I-12, 4-(2-((3-fluoro-4-(2-methylmorpholino)phenyl)amino)pyrimidin-4-yl)-N-hydroxy-2-methylbenzamide]
24 | < 1000 | CC1CN(C(C)c2ccc(Nc3nccc(-c4ccc(C(=O)NO)cc4)n3)cc2F)CCO1 (stereo not drawn) [Compound I-13, 4-(2-((3-fluoro-4-(1-(2-methylmorpholino)ethyl)phenyl)amino)pyrimidin-4-yl)-N-hydroxybenzamide]
25 | < 1000 | CC1CN(CC(=O)Nc2nccc(-c3ccc(C(=O)NO)cc3)n2)CCO1 (stereo not drawn) [Compound I-14, N-hydroxy-4-(2-(2-(2-methylmorpholino)acetamido)pyrimidin-4-yl)benzamide]
26 | < 1000 | C[C@H]1CN(Cc2ccc(Nc3nccc(-c4ccc(C(=O)NO)cc4)n3)cc2F)CCO1 [Compound I-15, (S)-4-(2-((3-fluoro-4-((2-methylmorpholino)methyl)phenyl)amino)pyrimidin-4-yl)-N-hydroxybenzamide]
27 | < 1000 | CCNNC(=O)c1ccc(-c2ccnc(Nc3ccc(C(=O)N4CCOCC4)c(F)c3)n2)cc1 [Compound I-18, N′-ethyl-4-(2-((3-fluoro-4-(morpholine-4-carbonyl)phenyl)amino)pyrimidin-4-yl)benzohydrazide]
28 | < 1000 | CCNNC(=O)c1ccc(-c2ccnc(Nc3ccc(C(=O)N4CCOCC4)cc3)n2)cc1 [Compound I-19, N′-ethyl-4-(2-((4-(morpholine-4-carbonyl)phenyl)amino)pyrimidin-4-yl)benzohydrazide]
29 | 1000 to 10000 | CCNNC(=O)c1ccc(-c2ccnc(NC(=O)N3CCOCC3)n2)cc1 [Compound I-20, N-(4-(4-(2-ethylhydrazine-1-carbonyl)phenyl)pyrimidin-2-yl)morpholine-4-carboxamide]
30 | < 1000 | CCNNC(=O)c1ccc(-c2ccnc(N3CCOCC3)n2)cc1 [Compound I-21, N′-ethyl-4-(2-morpholinopyrimidin-4-yl)benzohydrazide]
